Assay [1] deals with HCT116 colorectal cancer cells. The assay is described as follows: Single agent HCT116 activity, 96 h cell viability (MTS) assay. The class given is cell-based. The note with it: Homo sapiens, HCT-116; 96 h MTS cell viability, compound alone; read-out: Single agent HT116 IC50. The procedure: Compounds can be screened for single agent activity against HCT116 colorectal cancer cells using a 96 h cell viability (MTS) assay. HCT116 are plated at 470 cells per well in 96-well polystyrene plates (Costar 3596) in 150 μl of McCoy's 5A media (Sigma M8403) supplemented with 10% foetal bovine serum (JRH Biosciences 12003), Penicillin/Streptomycin solution diluted 1:100 (Sigma P7539), and 2 mM L-glumtamine (Sigma G7513), and allowed to adhere overnight at 37° C. in 5% CO2. Compounds are then added to the cell media in 2-fold serial dilutions from a top final concentration of 10 μM as a full matrix of concentrations in a final cell volume of 200 μl, and the cells are then incubated at 37° C. in 5% CO2. After 96 h, 40 μl of MTS reagent (Promega G358a) is added to each well and the cells are incubated for lh at 37° C. in 5% CO2. Finally, absorbance is measured at 490 nm using a SpectraMax Plus 384 reader (Molecular Devices) and IC50 values can be calculated.

In a further assay the target is T1, full-length ATR (Homo sapiens, UniProt Q13535).
T1 construct: Assays were carried out at 25° C. in the presence of 5 nM full-length ATR
The experiment in a line: ATR inhibition assay, radioactive-phosphate incorporation. It is filed as biochemical. The note with it: Ki(app); 5 nM full-length ATR, 10 μM ATP, 800 μM target peptide, 25° C. On the procedure: Compounds were screened for their ability to inhibit ATR kinase using a radioactive-phosphate incorporation assay. Assays were carried out in a mixture of 50 mM Tris/HCl (pH 7.5), 10 mM MgCl2 and 1 mM DTT. Final substrate concentrations were 10 μM [γ-33P]ATP (3 mCi 33P ATP/mmol ATP, Perkin Elmer) and 800 μM target peptide (ASELPASQPQPFSAKKK (SEQ. ID NO: 1)).
Assays were carried out at 25° C. in the presence of 5 nM full-length ATR. An assay stock buffer solution was prepared containing all of the reagents listed above, with the exception of ATP and the test compound of interest. 13.5 μL of the stock solution was placed in a 96 well plate followed by addition of 2 μL of DMSO stock containing serial dilutions of the test compound (typically starting from a final concentration of 15 μM 3-fold serial dilutions) in duplicate (final DMSO concentration 7%). The plate was pre-incubated for 10 minutes at 25° C. and the reaction initiated by addition of 15 μL [γ-33P]ATP (final concentration 10 μM).
The reaction was stopped after […] by the addition of 30 μL 0.1M phosphoric acid containing 2 mM ATP. A multiscreen phosphocellulose filter 96-well plate (Millipore, Cat no. MAPHN0B50) was pretreated with 100 μL 0.2M phosphoric acid prior to the addition of 45 μL of the stopped assay mixture. The plate was washed with 5×200 μL 0.2M phosphoric acid. After drying, 100 μL Optiphase ‘SuperMix’ liquid scintillation cocktail (Perkin Elmer) was added to the well prior to scintillation counting (1450 Microbeta Liquid Scintillation Counter, Wallac).
After removing mean background values for all of the data points, Ki(app) data were calculated from non-linear regression analysis of the initial rate data using the Prism software package (GraphPad Prism version 3.0cx for Macintosh, GraphPad Software, San Diego, Calif., USA).

The target of another assay is T2, intracellular ATR (Homo sapiens, UniProt Q13535).
T2 construct: endogenous in cells; host or cells: HT29
The assay is described as follows: Cellular ATR inhibition assay, H2AX phosphorylation in hydroxyurea treated HT29 cells. It is filed as cell-based. Particulars: 2 mM hydroxyurea, phosphorylated H2AX Ser139 positive nuclei. The procedure: Compounds can be screened for their ability to inhibit intracellular ATR using an immunofluorescence microscopy assay to detect phosphorylation of the ATR substrate histone H2AX in hydroxyurea treated cells. HT29 cells are plated at 14,000 cells per well in 96-well black imaging plates (BD 353219) in McCoy's 5A media (Sigma M8403) supplemented with 10% foetal bovine serum (JRH Biosciences 12003), Penicillin/Streptomycin solution diluted 1:100 (Sigma P7539), and 2 mM L-glumtamine (Sigma G7513), and allowed to adhere overnight at 37° C. in 5% CO2. Compounds are then added to the cell media from a final concentration of 25 μM in 3-fold serial dilutions and the cells are incubated at 37° C. in 5% CO2. After 15 min, hydroxyurea (Sigma H8627) is added to a final concentration of 2 mM.
After 45 min of treatment with hydroxyurea, the cells are washed in PBS, fixed for 10 min in 4% formaldehyde diluted in PBS (Polysciences Inc 18814), washed in 0.2% Tween-20 in PBS (wash buffer), and permeabilised for 10min in 0.5% Triton X-100 in PBS, all at room temperature. The cells are then washed once in wash buffer and blocked for 30 min at room temperature in 10% goat serum (Sigma G9023) diluted in wash buffer (block buffer). To detect H2AX phosphorylation levels, the cells are then incubated for 1 h at room temperature in primary antibody (mouse monoclonal anti-phosphorylated histone H2AX Ser139 antibody; Upstate 05-636) diluted 1:250 in block buffer. The cells are then washed five times in wash buffer before incubation for lh at room temperature in the dark in a mixture of secondary antibody (goat anti-mouse Alexa Fluor 488 conjugated antibody; Invitrogen A11029) and Hoechst stain (Invitrogen H3570); diluted 1:500 and 1:5000, respectively, in wash buffer. The cells are then washed five times in wash buffer and finally 100 ul PBS is added to each well before imaging.
Cells are imaged for Alexa Fluor 488 and Hoechst intensity using the BD Pathway 855 Bioimager and Attovision software (BD Biosciences, Version 1.6/855) to quantify phosphorylated H2AX Ser139 and DNA staining, respectively. The percentage of phosphorylated H2AX-positive nuclei in a montage of 9 images at 20× magnification is then calculated for each well using BD Image Data Explorer software (BD Biosciences Version 2.2.15). Phosphorylated H2AX-positive nuclei are defined as Hoechst-positive regions of interest containing Alexa Fluor 488 intensity at 1.75-fold the average Alexa Fluor 488 intensity in cells not treated with hydroxyurea. The percentage of H2AX positive nuclei is finally plotted against concentration for each compound and IC50s for intracellular ATR inhibition are determined using Prism software (GraphPad Prism version 3.0cx for Macintosh, GraphPad Software, San Diego Calif., USA).

The subject of assay [2] is HCT116 colorectal cancer cells. The experiment in a line: Cisplatin sensitization assay, 96 h cell viability (MTS). The class given is cell-based. The note with it: concentration of compound required to reduce the IC50 of Cisplatin alone by at least 3-fold; HCT116, 96 h MTS. The procedure:
Compounds can be screened for their ability to sensitize HCT116 colorectal cancer cells to Cisplatin using a 96 h cell viability (MTS) assay. […] Compounds and Cisplatin are then both added simultaneously to the cell media in 2-fold serial dilutions from a top final concentration of 10 μM as a full matrix of concentrations in a final cell volume of 200 μl and the cells are then incubated at 37° C. in 5% CO2. After 96 h, 40 μl of MTS reagent (Promega G358a) is added to each well and the cells are incubated for lh at 37° C. in 5% CO2. Finally, absorbance is measured at 490 nm using a SpectraMax Plus 384 reader (Molecular Devices) and the concentration of compound required to reduce the IC50 of Cisplatin alone by at least 3-fold (to 1 decimal place) can be reported.

Bounds are passed on as bounds.

Consider six compounds from US8912198B2, “Compounds useful as inhibitors of ATR kinase” (Vertex Pharmaceuticals Incorporated, priority 2012, dated 2014).

In general, IC50 refers to the concentration that gives 50% inhibition.

T2 sequence (Q13535 whole entry): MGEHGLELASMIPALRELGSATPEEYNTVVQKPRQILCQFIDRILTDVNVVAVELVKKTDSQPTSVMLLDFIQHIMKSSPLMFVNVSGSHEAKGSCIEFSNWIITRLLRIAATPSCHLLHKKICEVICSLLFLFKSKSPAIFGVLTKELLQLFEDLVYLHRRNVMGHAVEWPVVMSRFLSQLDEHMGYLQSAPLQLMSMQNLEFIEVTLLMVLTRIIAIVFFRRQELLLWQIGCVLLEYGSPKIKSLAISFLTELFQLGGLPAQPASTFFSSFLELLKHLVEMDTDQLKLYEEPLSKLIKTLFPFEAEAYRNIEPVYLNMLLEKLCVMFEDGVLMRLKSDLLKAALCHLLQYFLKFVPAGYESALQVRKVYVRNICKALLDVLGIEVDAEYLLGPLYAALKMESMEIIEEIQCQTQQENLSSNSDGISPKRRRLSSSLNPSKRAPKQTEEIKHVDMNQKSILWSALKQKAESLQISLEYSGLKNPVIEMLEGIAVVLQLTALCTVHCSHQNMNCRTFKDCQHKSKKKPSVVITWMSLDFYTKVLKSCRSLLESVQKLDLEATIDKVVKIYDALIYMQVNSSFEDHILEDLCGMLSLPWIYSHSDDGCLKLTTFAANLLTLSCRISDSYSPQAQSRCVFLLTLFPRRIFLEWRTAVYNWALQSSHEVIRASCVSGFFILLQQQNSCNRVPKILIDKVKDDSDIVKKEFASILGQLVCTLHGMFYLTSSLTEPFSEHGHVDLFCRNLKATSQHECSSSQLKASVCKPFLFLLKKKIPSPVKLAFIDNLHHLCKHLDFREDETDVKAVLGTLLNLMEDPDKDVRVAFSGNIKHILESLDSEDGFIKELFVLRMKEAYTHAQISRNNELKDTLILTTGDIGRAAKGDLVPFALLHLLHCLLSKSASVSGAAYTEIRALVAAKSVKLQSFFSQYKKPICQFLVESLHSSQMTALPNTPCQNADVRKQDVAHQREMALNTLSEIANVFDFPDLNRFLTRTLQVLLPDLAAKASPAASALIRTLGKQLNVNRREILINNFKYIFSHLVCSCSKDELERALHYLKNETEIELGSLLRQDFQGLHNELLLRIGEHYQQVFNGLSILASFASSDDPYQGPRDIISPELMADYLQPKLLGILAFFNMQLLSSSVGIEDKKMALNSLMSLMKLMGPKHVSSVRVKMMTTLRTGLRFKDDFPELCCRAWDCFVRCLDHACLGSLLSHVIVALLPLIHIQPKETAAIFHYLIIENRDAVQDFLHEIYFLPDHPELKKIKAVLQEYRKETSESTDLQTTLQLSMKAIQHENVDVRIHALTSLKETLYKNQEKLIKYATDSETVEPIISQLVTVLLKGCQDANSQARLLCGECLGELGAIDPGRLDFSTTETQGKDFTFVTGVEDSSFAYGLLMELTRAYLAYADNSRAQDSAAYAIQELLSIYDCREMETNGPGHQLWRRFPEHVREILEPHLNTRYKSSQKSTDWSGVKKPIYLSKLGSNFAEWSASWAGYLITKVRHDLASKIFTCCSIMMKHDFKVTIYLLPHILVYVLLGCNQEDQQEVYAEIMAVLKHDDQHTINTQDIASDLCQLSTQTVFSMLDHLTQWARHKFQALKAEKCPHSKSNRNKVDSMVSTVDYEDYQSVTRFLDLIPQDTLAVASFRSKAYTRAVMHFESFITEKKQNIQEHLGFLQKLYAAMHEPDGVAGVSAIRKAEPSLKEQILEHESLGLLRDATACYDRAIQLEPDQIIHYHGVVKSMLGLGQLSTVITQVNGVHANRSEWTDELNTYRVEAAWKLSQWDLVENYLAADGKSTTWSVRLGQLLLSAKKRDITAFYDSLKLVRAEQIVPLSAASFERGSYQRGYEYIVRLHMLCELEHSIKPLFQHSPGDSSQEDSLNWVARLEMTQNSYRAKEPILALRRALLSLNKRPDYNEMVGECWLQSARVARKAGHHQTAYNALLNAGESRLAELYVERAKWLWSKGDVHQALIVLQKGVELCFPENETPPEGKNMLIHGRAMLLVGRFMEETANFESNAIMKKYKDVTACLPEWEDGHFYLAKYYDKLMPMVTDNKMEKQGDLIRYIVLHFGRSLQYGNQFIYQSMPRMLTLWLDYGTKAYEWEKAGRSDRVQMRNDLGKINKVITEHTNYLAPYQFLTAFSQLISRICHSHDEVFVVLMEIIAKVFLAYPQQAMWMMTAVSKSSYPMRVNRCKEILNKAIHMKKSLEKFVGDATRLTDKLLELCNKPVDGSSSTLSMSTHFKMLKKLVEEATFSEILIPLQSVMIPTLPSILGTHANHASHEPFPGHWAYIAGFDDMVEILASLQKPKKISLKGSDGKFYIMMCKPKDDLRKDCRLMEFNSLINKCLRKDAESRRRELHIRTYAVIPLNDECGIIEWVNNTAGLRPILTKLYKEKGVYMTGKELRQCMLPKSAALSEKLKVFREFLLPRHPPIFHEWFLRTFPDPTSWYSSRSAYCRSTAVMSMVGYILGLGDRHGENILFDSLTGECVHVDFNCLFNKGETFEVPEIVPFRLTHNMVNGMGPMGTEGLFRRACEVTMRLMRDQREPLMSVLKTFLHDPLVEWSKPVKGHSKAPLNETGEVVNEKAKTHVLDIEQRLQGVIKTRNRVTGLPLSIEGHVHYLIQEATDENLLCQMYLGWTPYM
T2 sequence (Q8WXE1 whole entry partner): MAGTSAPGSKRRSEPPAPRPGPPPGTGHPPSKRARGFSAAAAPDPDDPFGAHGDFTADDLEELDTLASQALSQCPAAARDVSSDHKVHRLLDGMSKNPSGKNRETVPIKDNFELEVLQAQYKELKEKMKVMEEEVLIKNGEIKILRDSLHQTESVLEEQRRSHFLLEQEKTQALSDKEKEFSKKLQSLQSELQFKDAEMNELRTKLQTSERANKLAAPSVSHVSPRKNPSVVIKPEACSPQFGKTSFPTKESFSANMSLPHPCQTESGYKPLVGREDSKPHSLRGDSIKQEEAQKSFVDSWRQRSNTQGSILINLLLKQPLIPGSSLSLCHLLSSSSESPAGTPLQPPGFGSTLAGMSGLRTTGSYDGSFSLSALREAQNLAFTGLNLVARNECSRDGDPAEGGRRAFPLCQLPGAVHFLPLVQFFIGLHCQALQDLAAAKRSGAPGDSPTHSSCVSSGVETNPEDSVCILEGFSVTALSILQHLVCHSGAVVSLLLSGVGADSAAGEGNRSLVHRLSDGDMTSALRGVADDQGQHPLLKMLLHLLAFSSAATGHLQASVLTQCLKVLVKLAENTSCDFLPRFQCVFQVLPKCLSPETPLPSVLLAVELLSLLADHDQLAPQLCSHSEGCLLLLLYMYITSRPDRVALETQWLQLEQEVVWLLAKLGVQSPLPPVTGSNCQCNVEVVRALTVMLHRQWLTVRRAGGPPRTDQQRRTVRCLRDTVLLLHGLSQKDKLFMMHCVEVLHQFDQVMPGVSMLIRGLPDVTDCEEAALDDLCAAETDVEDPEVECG
T1 sequence (Q13535 whole entry): as the sequence (Q13535 whole entry) above

For `CC(C)S(=O)(=O)c1ccc(-c2cnc(N)c(-c3cc(-c4ccc(NC[C@@H]5CCCN5)cc4)no3)n2)cc1` [Compound I-3, (S)-5-(4-(isopropylsulfonyl)phenyl)-3-(3-(4-((pyrrolidin-2-ylmethyl)amino)phenyl)isoxazol-5-yl)pyrazin-2-amine], the half-inhibitory concentration (IC50) in assay [1] amounted to 83 nM; against intracellular ATR, 14 nM. Besides, on full-length ATR, the Ki was 0.49 nM. In addition, the Cisplatin sensitization in assay [2] is 20 nM.

For `CC(C)S(=O)(=O)c1ccc(-c2cnc(N)c(-c3cc(-c4ccc(NCC5CCN5)cc4)no3)n2)cc1` (stereo not drawn) [Compound I-2, 3-[3-[4-(azetidin-2-ylmethylamino)phenyl]isoxazol-5-yl]-5-(4-isopropylsulfonylphenyl)pyrazin-2-amine], the 50% inhibitory concentration (IC50) in assay [1] stood at 140 nM; on intracellular ATR, 40 nM. Besides, at full-length ATR, the Ki was 0.6 nM. The Cisplatin sensitization in assay [2] is 78 nM.

As to `CC(C)S(=O)(=O)c1ccc(-c2cnc(N)c(-c3cc(-c4ccc(NCC5CCCN5)cc4)no3)n2)cc1` (stereo not drawn) [Compound I-5, 5-(4-isopropylsulfonylphenyl)-3-[3-[4-(pyrrolidin-2-ylmethylamino)phenyl]isoxazol-5-yl]pyrazin-2-amine], the figures for the IC50 (in assay [1]; against intracellular ATR) were 26 nM and less than 10 nM, respectively. Besides, the Ki at full-length ATR was less than 0.1 nM. Also, in assay [2], the Cisplatin sensitization is on record as 20 nM.

As for `CC(C)S(=O)(=O)c1ccc(-c2cnc(N)c(-c3cc(-c4ccc(NC[C@H]5CCCN5)cc4)no3)n2)cc1` [Compound I-4, (R)-5-(4-(isopropylsulfonyl)phenyl)-3-(3-(4-((pyrrolidin-2-ylmethyl)amino)phenyl)isoxazol-5-yl)pyrazin-2-amine], the half-inhibitory concentration (IC50) in assay [1] was determined as 52 nM; against intracellular ATR, 13 nM. Besides, on full-length ATR, the Ki turned out to be 0.35 nM. Also, the Cisplatin sensitization in assay [2] was 39 nM.

Turning to `CC(C)S(=O)(=O)c1ccc(-c2cnc(N)c(-c3cc(-c4ccc(NCC5CCCCN5)cc4)no3)n2)cc1` (stereo not drawn) [Compound I-1, 5-(4-isopropylsulfonylphenyl)-3-[3-[4-(2-piperidylmethylamino)phenyl]isoxazol-5-yl]pyrazin-2-amine], the IC50 in assay [1] is 210 nM; against intracellular ATR it was 62 nM. At full-length ATR, the Ki was 0.635 nM. Also, the Cisplatin sensitization in assay [2] was found to be 156 nM.

In the case of `CC(C)S(=O)(=O)c1ccc(-c2cnc(N)c(-c3cc(-c4ccc(NCCN(C)C)cc4)no3)n2)cc1` [Compound I-6, N-(4-(5-(3-amino-6-(4-(isopropylsulfonyl)phenyl)pyrazin-2-yl)isoxazol-3-yl)phenyl)-N,N-dimethylethane-1,2-diamine], the figures for the half-inhibitory concentration (IC50) (in assay [1]; at intracellular ATR) were 720 nM and 260 nM, respectively. Moreover, the Ki on full-length ATR amounted to 0.405 nM. Moreover, the Cisplatin sensitization in assay [2] amounted to 78 nM.
